Data from patent US20250344698A1, “A METHOD OF CONTROLLING WEEDS” (SYNGENTA CROP PROTECTION AG, priority 2022, published 2025).

Tested on: PPO inhibitor herbicide resistant Amaranthus tuberculatus homozygous for deletion of glycine at codon 210 in PPX2L
Experiment: Postemergence glasshouse test, dead or alive assessment, codon 210 deletion population
Assay type: in vivo
Conditions: 14 days after application; for use rate at or beyond which no plants survived application: postemergence

| Structure (SMILES) | Average % Survival of 16 repetitions (2 g ai/ha^−1 postemergence) [%] | Average % Survival of 16 repetitions (4 g ai/ha^−1 postemergence) [%] | Average % Survival of 16 repetitions (8 g ai/ha^−1 postemergence) [%] | Average % Survival of 16 repetitions (16 g ai/ha^−1 postemergence) [%] | Average % Survival of 16 repetitions (32 g ai/ha^−1 postemergence) [%] | Average % Survival of 16 repetitions (64 g ai/ha^−1 postemergence) [%] | Average % Survival of 16 repetitions (128 g ai/ha^−1 postemergence) [%] | Average % Survival of 16 repetitions (256 g ai/ha^−1 postemergence) [%] | use rate at or beyond which no plants survived application [g ai/ha^−1] | Average % Survival of 16 repetitions (0.82 g ai/ha^−1 postemergence) [%] | Average % Survival of 16 repetitions (1.64 g ai/ha^−1 postemergence) [%] | Average % Survival of 16 repetitions (3.28 g ai/ha^−1 postemergence) [%] | Average % Survival of 16 repetitions (6.56 g ai/ha^−1 postemergence) [%] | Average % Survival of 16 repetitions (13.13 g ai/ha^−1 postemergence) [%] | Average % Survival of 16 repetitions (26.25 g ai/ha^−1 postemergence) [%] | Average % Survival of 16 repetitions (52.5 g ai/ha^−1 postemergence) [%] | Average % Survival of 16 repetitions (105 g ai/ha^−1 postemergence) [%] | Average % Survival of 16 repetitions (210 g ai/ha^−1 postemergence) [%] | Average % Survival of 16 repetitions (420 g ai/ha^−1 postemergence) [%] | Average % Survival of 16 repetitions (840 g ai/ha^−1 postemergence) [%] |
| --- | --- | --- | --- | --- | --- | --- | --- | --- | --- | --- | --- | --- | --- | --- | --- | --- | --- | --- | --- | --- |
| CCOC(=O)C1(C)CC(c2cc(-n3c(=O)cc(C(F)(F)F)n(C)c3=O)c(F)cc2Cl)=NO1 (stereo not drawn) [Compound 8, 3-(2-chloro-4-fluoro-5-(3-methyl-2,6-dioxo-4-trifluoromethyl-3,6-dihydropyrimidin-1(2H)-yl)phenyl)-5-methyl-4,5-dihydroisoxazole-5-carboxylic acid ethyl ester] | 100 | 100 | 75 | 12.5 | 12.5 | 0 | 0 | 0 | ≥ 64 |  |  |  |  |  |  |  |  |  |  |  |
| CS(=O)(=O)NC(=O)c1cc(Oc2ccc(C(F)(F)F)cc2Cl)ccc1[N+](=O)[O-] [Fomesafen] |  |  |  |  |  |  |  |  | ≥ 210 | 100 | 100 | 100 | 100 | 100 | 100 | 81.3 | 62.5 | 0 | 0 | 0 |
